The values that follow come from the NIST ThermoML archive (doi:10.1016/j.tca.2018.07.003).

The conditions of data set [1]: 295 K; 77 kPa; Liquid; transient hot wire.
A short description of data set [2]: wn = mass fraction of the nth substance listed. The following applies: 295 K, 77 kPa, Liquid, transient hot wire.
A short description of data set [3]: heat capacity at constant pressure per volume; wn = mass fraction of the nth substance listed. The following applies: 295 K, 77 kPa, Liquid, From thermal conductivity and thermal effusivity measured separately.

± gives the expanded uncertainty stated by the source.

`OCCO` [1,2-ethanediol]: the thermal conductivity in data set [1] was 0.254 ± 0.01 W/m/K.
For `CC(C)CC(C)(C)C` [2,2,4-trimethylpentane], in data set [1], the thermal conductivity is listed as 0.096 ± 0.004 W/m/K.
With `CC(C)CC(C)(C)C` [2,2,4-trimethylpentane] + CCCCCCC, the thermal conductivity came out at 0.116 ± 0.004 W/m/K in data set [2] (w1 = 0.2); 0.113 ± 0.004 W/m/K in data set [2] (w1 = 0.4); 0.107 ± 0.004 W/m/K in data set [2] (w1 = 0.6); 0.104 ± 0.004 W/m/K in data set [2] (w1 = 0.8); 0.096 ± 0.004 W/m/K in data set [2] (w1 = 1). The heat capacity in data set [3] (w1 = 0.2) was found to be 1390000 ± 90000 J/K/m3; in data set [3] (w1 = 0.4) it was 1310000 ± 90000 J/K/m3; in data set [3] (w1 = 0.6), 1310000 ± 80000 J/K/m3; in data set [3] (w1 = 0.8), 1290000 ± 80000 J/K/m3; in data set [3] (w1 = 1) it was 1340000 ± 90000 J/K/m3.
With `OCC(O)CO` [glycerol], in data set [1], the thermal conductivity is 0.289 ± 0.01 W/m/K.
Still for that read-out and setting: the same measure for `CCCCCCC` [heptane]: 0.119 ± 0.004 W/m/K.
Regarding `CCCCCCC` [heptane] + CC(C)CC(C)(C)C, in data set [2] (w2 = 0), the thermal conductivity is 0.119 ± 0.004 W/m/K. Also, the heat capacity in data set [3] (w2 = 0) stood at 1480000 ± 100000 J/K/m3.
For `CO` [methanol], the thermal conductivity in data set [1] came to 0.208 ± 0.008 W/m/K.
On the same count and under the same terms, the same measure for `O` [water]: 0.6 ± 0.02 W/m/K.
